Data: US20050153315A1, “Dimethylarginine dimethylaminohydrolases” (UNIVERSITY COLLEGE LONDON, priority 1999, published 2005)

How the values were obtained:
Assay type in all cases: biochemical
[1] = biological target: T1, recombinant human DDAHII (Homo sapiens, UniProt O95865); assay: DDAH assay, [14C]L-NMMA to [14C]citrulline, lysates of E. coli expressing recombinant human DDAHII; settings: E. coli lysate, 37° C., 60 min, pH 6.5; for effect of competition on metabolism of [14C] L-NMMA by recombinant DDAHII: molar excess of cold competitor
T1 construct: The entire human DDAHII open reading frame was PCR amplified from oligo dT primed human kidney cDNA; made in house; host or cells: E. coli DH5α, soluble fraction of the lysate, not purified
T1 sequence (O95865 1-285): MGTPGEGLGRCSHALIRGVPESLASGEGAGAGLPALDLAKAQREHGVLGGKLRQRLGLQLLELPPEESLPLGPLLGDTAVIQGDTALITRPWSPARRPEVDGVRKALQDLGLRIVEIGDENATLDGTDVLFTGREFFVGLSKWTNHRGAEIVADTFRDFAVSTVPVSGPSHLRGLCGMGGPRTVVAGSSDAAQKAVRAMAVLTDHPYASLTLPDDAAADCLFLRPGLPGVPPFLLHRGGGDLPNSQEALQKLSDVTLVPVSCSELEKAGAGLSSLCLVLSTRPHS
Excerpt: The entire human DDAHII open reading frame was PCR amplified from oligo dT primed human kidney cDNA using oligos HDDAHII.1 and HDDAHII.2. Oligo HDDAH II.1 is complementary to base pairs 2-15 of the human DDAHII cDNA and contains an EcoRI site in frame with the EcoTI site of pPROX.HTa (Life Technologies). HDDAHI.2 is complementary to base pairs 858-840 of the human DDAHII cDNA and contains an artificial XbaI site. PCR produced a single product of ˜850 bp which was digested with EcoRI and Xbai, ligated into EcoRI and XbaI digested pRPROX.HTa and transformed into compotent E.coli DH5α. A positive clone (pPDDAHII) containing an insert of 858 bp was identified and the insert sequenced on both stands. For expression of recombinant human DDAHII, E.coli were grown in liquid culture at 25 ° C. to an OD600 of 0.5-0.6. Expression was then induced by the addition of IPTG to a final concentration of 1 mM and incubation continued for a further two hours. Following induction, cells were collected by centrifugation, weighed and resuspended in ice cold assay buffer (100 mM Na2HPO4 pH 6.5) at 1 g cells/ml. Cells were disrupted by sonication (6×10 secs, with 10 sec. intervals) and centriguged at 50,000 g to separate soluble material from insoluble cell debris.
Aliquots of E.coli lysates were incubated at 37° C. for 60 min. with […] of 100 mM Na2HPO4 pH 6.5 containing 0.02 μCi [^14C]L-NMMA as described previously (MacAllister et al., 1996, Br. J. Pharmacol. 115, 1001-1004). Following incubation samples were prepared for determination of [^14C] citrulline production by scintillation counting. Reactions were vortexed with 1 ml of 50% (w/v) dowex 50X8-400, centrifuged at 10,000 g for 5 min and then 500 μl of the supernatant was mixed with 5 ml of liquid scintillation fluid and the [^14C] content determined.

[2] = system: S. coelicolor DDAH (ScDDAH); assay: DDAH assay, cell lysates containing recombinant S. coelicolor DDAH; settings: 10 mM
Protocol: (§1) The effect of 10 mM ADMA and SDMA on recombinant ScDDAH and paDDAH was studied using the assay conditions described in the material and methods section below. Assays were carried out in triplicate on aliquots of cell lysates containing empty vector, scDDAH cDNA or paDDAH cDNA and data was expressed as a mean of the total number of replicates after subtraction of background. The results shown are the mean of three independent experiments.
(§2) Samples were assayed by incubating 100 μl of cells lysates with an equal volume of assay mix (100 mM Na2HPO4 pH 6.5, containing 0.02 μCi [^14C] L-NMMA and 100 μM cold L-NMMA) at 37° C. for 60 min, as previously reported. The samples were then prepared for scintillation counting to measure the production of [^14C] citrulline by adding 400 μl of 50% (w/v) Dowex 50X-400 to the reactions, vortexing and centrifugation at 13000 g for 2 min. The [^14C] content of 100 μl of supernatant in 1 ml scintillation fluid was then determined.
(§3) For expression of the recombinant proteins, a positive clone was picked and grown in liquid media supplemented with 100 μg/ml ampicillin. […]

[3] = biological target: T2, P. aeruginosa DDAH (PaDDAH) (Pseudomonas aeruginosa, UniProt Q9I4E3); assay: DDAH assay, cell lysates containing recombinant P. aeruginosa DDAH; settings: 10 mM
T2 construct: The inserts containing the open reading frames of the bacterial DDAHs were excised from the vector; made in house; host or cells: E. coli DH5α, cell lysate
Protocol: as §1, §2, §3

T2 sequence (Q9I4E3 whole entry): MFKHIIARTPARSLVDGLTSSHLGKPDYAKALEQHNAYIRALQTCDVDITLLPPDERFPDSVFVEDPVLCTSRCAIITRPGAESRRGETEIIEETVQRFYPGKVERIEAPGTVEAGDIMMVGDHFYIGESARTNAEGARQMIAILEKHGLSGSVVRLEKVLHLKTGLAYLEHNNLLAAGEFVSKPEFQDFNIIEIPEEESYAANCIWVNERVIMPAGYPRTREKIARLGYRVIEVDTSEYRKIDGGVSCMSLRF

## CN(C)C(N)=NCCC[C@H](N)C(=O)O [ADMA, N^GN′^G dimethyl-L-arginine]
[1]
  effect of competition on metabolism of [14C] L-NMMA by recombinant DDAHII: inhibited
[2]; ADMA compared with SDMA, ScDDAH
  relative effect on the metabolism of L-NMMA: greater effect than SDMA
[2]; ScDDAH cell lysate, FIG. 7
  competition with L-NMMA as substrate (metabolism of [14C] L-NMMA): compete with L-NMMA as substrates
[3]; ADMA compared with SDMA, PaDDAH
  relative effect on the metabolism of L-NMMA: greater effect than SDMA
[3]; PaDDAH cell lysate, FIG. 7
  competition with L-NMMA as substrate (metabolism of [14C] L-NMMA): compete with L-NMMA as substrates

## CNC(=N)NCC[C@H](N)C(=O)O [4124W, S-2-amino-4(3-methylguanidino)butanoic acid]
[1]
  effect of DDAH inhibitor on metabolism of [14C] L-NMMA by recombinant DDAHII: inhibited

## CNC(=N)NCCC[C@H](N)C(=O)O [L-NMMA, N^G monomethyl-L-arginine]
[1]
  effect of competition on metabolism of [14C] L-NMMA by recombinant DDAHII: inhibited

## NC(=O)NCCC[C@H](N)C(=O)O [citrulline]
[1]
  effect of competition on metabolism of [14C] L-NMMA by recombinant DDAHII: inhibited
